This is an account of results in patent US5750754A, “Heterocyclic compounds” (Zeneca Limited, priority 1993, dated 1998).

Counter-ions that a name gives are not always drawn. Like-named read-outs stand apart in the source and are kept apart here.

In assay [1] the target is T1, human, citrated, platelet-rich plasma (Homo sapiens, UniProt P05106+P08514).
T1 construct: aggregating human, citrated, platelet-rich plasma; endogenous in cells; host or cells: human platelets in citrated platelet-rich plasma
The assay can be described thus: Test (a): inhibition of ADP stimulated platelet aggregation (Born). The settings on record: ADP induced aggregation of human platelet-rich plasma. Format: cell-based. An excerpt:
(i) aggregating human, citrated, platelet-rich plasma by addition of adenosine diphosphate so as to generate a dose-response curve;
(ii) generating a dose-response curve for ADP stimulated platelet aggregation in the presence of increasing amounts of a test compound (generally in the range 10-^5 M to 10-^10 M); and
(iii) calculating a pA2 value indicating potency of platelet aggregation inhibition for the test compound, averaged over several concentrations, from the calculated 50% response value for ADP aggregation in the presence and absence of the test compound.

Assay [2] concerns the target T2, purified human platelet fibrinogen receptor (GPIIb/IIIa) (Homo sapiens, UniProt P05106+P08514).
T2 construct: is isolated from human platelet lysates; from tissue
The assay can be described thus: Test (b): GPIIb/IIIa ELISA, inhibition of biotinylated fibrinogen binding. The following applies: purified human platelet GPIIb/IIIa, ELISA. The method, then: (i) Preparation of human platelet lysates.
Platelet rich plasma (PRP) is harvested by centrifugation (1000 rpm, 15 mins) of whole blood anticoaoulated with acid citrate dextrose (trisodium citrate 85 mM, citric acid 70 mM, d-glucose 110 mM) 1 part to 6 parts blood. Prostacyclin (PGI2, 1 μM) is added to the PRP before centrifugation (2400 pm, 15 mins) and the resulting pellet is resuspended in modified Tyrodes' solution (NaCl 130 mM, KCl 26 mM, NaHCO3 12 mM, NaH2 PO4 0.5 mM, MgCl2 1 mM, CaCl2 20 mM, Glucose 12 mM, HEPES 5 mM) containing bovine serum albumin 3.5 g/L, PGI2 1 μM and hirudin 0.5 U/ml. The platelet suspension is centrifuged (2400 rpm, 15 mins) and the resultant pellet resuspended in 500 μl of lysis buffer (octyl glucoside 50 mM, HEPES 10 mM, NaCl 150 mM, CaCl2 1 mM, MgCl2 1 mM, PMSF 1 mM, NEM 10 mM, leupeptin 0.1 mM), agitated at 4° C. for 15 minutes then centrifuged at 24000 rpm, 15 mins. The supernatant is stored at 4° C. and the pellet re-suspended in 500 μl of lysis buffer. The centrifugation process is repeated a further 3 tlimes, the pooled supernatants being stored at -70° C.
(ii) Receptor purification.
GP Ilb/Ila is isolated from human platelet lysates using a 2 ml peptide (KYGRGDS) coupled CNBr activated Sepharose affinity column. A 1.5 ml volume of platelet lysate is placed on the column and allowed to stand overnight at 4° C. Buffer (30 mls, octyl gluicoside 25 mM, HEPES 10 mM, NaCl 150 mM, CaCl2 1 mM, MgCl2 1 mM, PMSF 1 mM, NEM 10 mM, leupeptin 0.1 mM) is passed through the column and 2 ml fractions are collected throughout. GPIIb/IIIa is eluted with 12 mls of buffer containing HHLGGAKQAGDV (2 mg/ml, pH 7.5), the column is washed using 4 mls buffer and the remaining GPIIb/IIIa eluted using 12 mls buffer containing GRGDSPG (1 mg/ml pH 7.5). The column is finally washed using 20 mls of buffer and can be used for up to three such preparations. Fractions containing FGPIIb/IIIa are identified using gel electrophoresis and immunoblotting, pooled and stored at -70° C.
96 well microtitre plates are coated with 100 μl purified human platelet fibrinogen receptor (GPIIb/IIIa) diluted in coating buffer (Tris-HCl 20 mM, NaCl 150 mM, CaCl2 1 mM, pH 7.4) and left overnight at 4° C. The plates are washed using washing buffer (Tris-HCl 50 mM, NaCl 100 mM, CaCl2 2 mM, pH 7.4) and non-specific binding, blocked by the addition of 200 μl 2% BSA (2 hours, 30° C.). The plates are washed prior to incubation (2 hours, 30° C.) with 100 μl biotinylated fibrinogen ([…]) containing either vehicle or test compound. The plates are washed, incubated with streptavidin (5 μg/ml, 1 hour, ambient temperature), then washed again before the addition of 100 μl biotinylated horse radish peroxidase (0.1 μg/ml, 1 hour, ambient temperature). The plates are then washed and equal volumes of peroxidase substrate (3, 5, tetramethyl benzidine 0.4 g/l) and H2 O2 (0.02%) are mixed together immediately before addition of 150 μl to each well. Colour is allowed to develop for 10-15 mins before optical densities are read at 650 nm.
The concentration of compound required to cause 50% inhibition of biotinylated fibrinogen binding, is calculated and expressed as a pIC50 (-log(IC50)).
For orientation: ELISA stands for enzyme-linked immunosorbent assay.

The mark [3] stands for this setting: read-out: Test (a): pA2 value indicating potency of platelet aggregation inhibition (converted).
Where [4] appears, read: read-out: Test (b): pIC50 (-log(IC50)), 50% inhibition of biotinylated fibrinogen binding to GPIIb/IIIa (converted).

T2 sequence (P08514 32-887 limits assumed): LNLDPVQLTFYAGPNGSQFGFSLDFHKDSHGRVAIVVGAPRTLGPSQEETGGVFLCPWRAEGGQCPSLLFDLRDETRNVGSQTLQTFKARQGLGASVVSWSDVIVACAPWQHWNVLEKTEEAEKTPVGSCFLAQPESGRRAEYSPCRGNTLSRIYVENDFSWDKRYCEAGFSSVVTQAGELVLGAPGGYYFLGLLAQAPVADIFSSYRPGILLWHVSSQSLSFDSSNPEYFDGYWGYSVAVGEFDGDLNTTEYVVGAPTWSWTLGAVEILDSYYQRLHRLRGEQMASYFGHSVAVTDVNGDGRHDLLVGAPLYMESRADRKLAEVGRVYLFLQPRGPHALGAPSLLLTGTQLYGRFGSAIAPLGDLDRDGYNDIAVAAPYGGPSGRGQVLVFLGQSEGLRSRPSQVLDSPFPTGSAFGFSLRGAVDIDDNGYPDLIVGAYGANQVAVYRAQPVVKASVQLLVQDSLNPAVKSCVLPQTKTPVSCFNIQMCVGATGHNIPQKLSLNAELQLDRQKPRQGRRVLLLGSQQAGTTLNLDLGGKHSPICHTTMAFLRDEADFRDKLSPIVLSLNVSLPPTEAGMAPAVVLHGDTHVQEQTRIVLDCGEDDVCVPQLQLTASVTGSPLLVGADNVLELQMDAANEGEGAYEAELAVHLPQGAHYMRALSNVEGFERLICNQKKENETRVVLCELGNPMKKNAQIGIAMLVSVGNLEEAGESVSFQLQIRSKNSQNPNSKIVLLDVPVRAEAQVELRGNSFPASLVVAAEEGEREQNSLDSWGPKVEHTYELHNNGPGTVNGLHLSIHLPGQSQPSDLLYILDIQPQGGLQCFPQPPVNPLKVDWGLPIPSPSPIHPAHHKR
T2 sequence (P08514 891-1039 limits assumed): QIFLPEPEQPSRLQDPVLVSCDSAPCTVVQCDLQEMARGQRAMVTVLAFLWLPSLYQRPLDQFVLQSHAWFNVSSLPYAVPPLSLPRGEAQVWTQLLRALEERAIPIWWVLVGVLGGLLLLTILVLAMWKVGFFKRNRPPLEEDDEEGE
T2 sequence (P05106 27-788): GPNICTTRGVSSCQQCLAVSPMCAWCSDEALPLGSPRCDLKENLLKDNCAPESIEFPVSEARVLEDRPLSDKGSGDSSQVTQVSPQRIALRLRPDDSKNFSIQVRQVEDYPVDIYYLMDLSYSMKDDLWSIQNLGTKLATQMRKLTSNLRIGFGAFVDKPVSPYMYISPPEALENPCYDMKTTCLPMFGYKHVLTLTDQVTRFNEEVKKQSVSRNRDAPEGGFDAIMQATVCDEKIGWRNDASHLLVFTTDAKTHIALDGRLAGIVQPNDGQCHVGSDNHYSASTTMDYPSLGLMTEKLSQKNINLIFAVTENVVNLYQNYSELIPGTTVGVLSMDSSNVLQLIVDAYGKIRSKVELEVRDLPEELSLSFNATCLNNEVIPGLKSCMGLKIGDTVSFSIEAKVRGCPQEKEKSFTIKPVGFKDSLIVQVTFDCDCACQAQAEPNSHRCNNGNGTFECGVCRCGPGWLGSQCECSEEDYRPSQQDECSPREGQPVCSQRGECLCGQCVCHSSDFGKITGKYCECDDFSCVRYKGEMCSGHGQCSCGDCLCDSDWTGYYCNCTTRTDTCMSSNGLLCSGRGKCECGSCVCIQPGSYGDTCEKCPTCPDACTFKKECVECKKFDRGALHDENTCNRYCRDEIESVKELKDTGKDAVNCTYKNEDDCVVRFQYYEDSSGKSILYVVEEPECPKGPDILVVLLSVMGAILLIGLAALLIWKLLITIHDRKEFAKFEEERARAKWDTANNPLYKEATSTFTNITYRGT
T1 sequence (P08514 32-887 limits assumed): as the sequence (P08514 32-887 limits assumed) above
T1 sequence (P08514 891-1039 limits assumed): as the sequence (P08514 891-1039 limits assumed) above
T1 sequence (P05106 27-788): as the sequence (P05106 27-788) above

Take `COC(=O)[C@H](Cc1ccc(OCCC2CCN(c3ccncc3)CC2)cc1)NS(=O)(=O)c1ccc(C)cc1` [Example 87, Methyl 2-S-(4-methylphenylsulphonylamino)-3-[4-[2-[1-(4-pyridyl)piperidin-4-yl]ethoxy]phenyl]propionate]: in assay [1] (setting [3]), the Kb was 2510 nM. Besides, the IC50 in assay [2] (setting [4]) was 63.1 nM.
Take `O=C(O)CCCCOc1cccc(N2CCN(c3ccncc3)CC2)c1` [Example 229, 3-[4-(4-Pyridyl)piperazin-1-yl]phenoxypentanoic acid]: the Kb in assay [1] (setting [3]) was 3980 nM. The IC50 in assay [2] (setting [4]) is 79.4 nM.
Take `CCCCS(=O)(=O)NC(Cc1ccc(CN2CCN(c3ccncc3)CC2)cc1)C(=O)O` (racemic) [Example 68, 2-RS-(n-Butylsulphonylamino)-3-[4-(4-pyridyl)piperazin-1-ylmethylene]phenylpropionic acid]: the Kb in assay [1] (setting [3]) is 316 nM. For the same compound, the IC50 in assay [2] (setting [4]) is 12.6 nM.
Consider `COC(=O)CCNC(=O)c1ccc(N2CCN(c3ccncc3)CC2)cc1` [Example 56, Methyl 3-[4-[4-(4-pyridyl)piperazin-1-yl]]benzaminopropionate], for which the Kb in assay [1] (setting [3]) was 3160 nM. Besides, in assay [2] (setting [4]), the IC50 was 15800 nM.
Taken in the same sequence, the figures for `O=C(O)C[C@H](NC(=O)CNC(=O)CN1CCN(c2ccncc2)CC1)C(=O)NCCc1ccccc1` [Example 194, (S)-3-[N-(2-Phenethyl)carboxamido]-3-[N-[N-2-[4-(4-pyridyl)piperazin-1-yl]acetyl]glycyl]aminopropionic acid, trifluoroacetate] were 3980 nM and 126 nM.
With `CS(=O)(=O)NCCc1ccc(NC(=O)C2CCN(c3ccncc3)CC2)cc1` [Example 183, N-[2-[4-[1-(4-Pyridyl)piperidin-4-yl]carboxamidophenyl]ethyl]methanesulphonamide], the Kb in assay [1] (setting [3]) was 31600 nM. In assay [2] (setting [4]), the IC50 is above 100000 nM.
Take `O=C(O)CCc1ccc(OCC2CCN(c3ccncc3)CC2)cc1` [Example 162, 3-[4-[1-(4-Pyridyl)piperidin-4-yl]methoxyphenyl]propionic acid]: the Kb in assay [1] (setting [3]) is 20000 nM. In assay [2] (setting [4]), the IC50 was 631 nM.
Take `O=C(O)c1ccc(Oc2ccc(N3CCN(c4ccncc4)CC3)cc2)nc1` [Example 233, 6-[4-[4-(4-Pyridyl)piperazin-1yl]phenoxy]pyridine-3-carboxylic acid]: the Kb in assay [1] (setting [3]) is 6310 nM. The IC50 in assay [2] (setting [4]) was 501 nM.
`CCCCS(=O)(=O)NCCc1ccc(C(=O)CN2CCN(c3ccncc3)CC2)cc1` [Example 24, N-[2-[4-[2-[4-(4-Pyridyl)piperazin-1-yl]acetyl]phenyl]ethyl]-1-butanesulphonamide]: the Kb in assay [1] (setting [3]) is 2000 nM. In addition, the IC50 in assay [2] (setting [4]) is 31600 nM.
In the case of `O=C(N[C@@H](Cc1ccc(OCCC2CCN(c3ccncc3)CC2)cc1)C(=O)O)OCc1ccccc1` [Example 94, 2-S-(Benzyloxycarbonylamino)-3-[4-[2-[1-(4-pyridyl)piperidin-4-yl]ethoxy]phenyl]propionic acid], the Kb in assay [1] (setting [3]) was 316 nM. In assay [2] (setting [4]), the IC50 was 2.51 nM.
The like results for `CC(C)(C)COC(=O)COc1ccc(C(=O)CN2CCN(c3ccncc3)CC2)cc1` [Example 139, Neopentyl 4-[2-[4-(4-pyridyl)piperazin-1-yl]acetyl]phenoxyacetate] were, in that order, 251 nM and 3980 nM.
The like results for `Cc1ccc(S(=O)(=O)NCc2ccc(NC(=O)C3CCN(c4ccncc4)CC3)cc2)cc1` [Example 171, N-[4[4-[1-(4-Pyridyl)piperidin-4yl]carboxyamidophenyl]methyl]-4-methylphenylsulphonamide] were, in that order, 6310 nM and above 100000 nM.
As to `COC(=O)COc1ccc(OCCC2CCN(c3ccncc3)CC2)cc1` [Example 159, Methyl 4-[2-[1-(4-pyridyl)piperidin-4-yl]ethoxy]phenoxyacetate], the Kb in assay [1] (setting [3]) is 501 nM. Further, the IC50 in assay [2] (setting [4]) was 2000 nM.
Consider `O=C(O)CCNC(=O)c1cccc(N2CCN(c3ccncc3)CC2)n1` [Example 74, 3-[6-[4-(4-Pyridyl)piperazin-1-yl]pyrid-2-yl]carboxamidopropionic acid], for which, in assay [1] (setting [3]), the Kb was 10000 nM. Moreover, the IC50 in assay [2] (setting [4]) is 2000 nM.
With `O=C(O)CSc1ccc(C(=O)CN2CCN(c3ccncc3)CC2)cc1` [Example 10], in assay [1] (setting [3]), the Kb is 2000 nM. Also, the IC50 in assay [2] (setting [4]) is 1000 nM.
Taken in the same sequence, the figures for `O=C(O)C[C@@H](NC(=O)c1ccc(N2CCN(c3ccncc3)CC2)cc1)C(=O)NCCc1ccccc1` [Example 193] were 39800 nM and 251 nM.
With `O=C(O)COc1ccc(C(=O)CN2CCN(c3ccncc3)CC2)cc1` [Example 2], the Kb in assay [1] (setting [3]) is 50.1 to 79.4 nM. Further, in assay [2], the “Test (b): pIC50 (-log(IC50)), 50% inhibition of biotinylated fibrinogen binding to GPIIb/IIIa” value turned out to be 7.6. The IC50 in assay [2] (setting [4]) is 25.1 nM.
For `CC(C)(C)c1cc(C(=O)CN2CCN(c3ccncc3)CC2)cc(C(C)(C)C)c1OCC(=O)O` [Example 130, 4-[2-[4-(4-Pyridyl)piperazin-1-yl]acetyl]-2,6-di-tert-butylphenoxyacetic acid], the Kb in assay [1] (setting [3]) is above 100000 nM. Moreover, the IC50 in assay [2] (setting [4]) is 3980 nM.
`CCCCS(=O)(=O)N[C@@H](Cc1ccc(OCC2CCN(c3ccncc3)CC2)cc1)C(=O)O` [Example 34, 2-S-(n-Butylsulphonylamino)-3-[4-[1-(4-pyridyl)piperidin-4-yl]methoxyphenyl]propionic acid]: in assay [1] (setting [3]), the Kb is 2 nM. The IC50 in assay [2] (setting [4]) was 2 nM.
Take `COC(=O)COc1ccc(C(=O)C(C)N2CCN(c3ccncc3)CC2)cc1` (racemic) [Example 16, (RS) Methyl 4-[2-[4-(4-pyridyl)piperazin-1-yl]-2-methylacetyl]phenoxyacetate]: the Kb in assay [1] (Test (a): pA2 value indicating potency of platelet aggregation inhibition) is 158 nM. In assay [2] (Test (b): pIC50 (-log(IC50)), 50% inhibition of biotinylated fibrinogen binding to GPIIb/IIIa), this compound gave an IC50 of 200 nM.
As for `CCCCC(=O)N[C@@H](Cc1ccc(OCCC2CCN(c3ccncc3)CC2)cc1)C(=O)OC` [Example 91, Methyl 2-S-(pentanoylamino)-3-[4-[2-[1-(4-pyridyl)piperidin-4-yl]ethoxy]phenyl]propionate], the Kb in assay [1] (setting [3]) is 158 nM. Further, the IC50 in assay [2] (setting [4]) is 200 nM.
Take `O=C(O)[C@H](Cc1ccc(OCCC2CCN(c3ccncc3)CC2)cc1)NS(=O)(=O)Cc1ccccc1` [Example 89, 2-S-(Benzylsulphonylamino)-3-[4-[2-[1-(4-pyridyl)piperidin-4-yl]ethoxy]phenyl]propionic acid]: in assay [1] (setting [3]), the Kb is 39.8 nM. In assay [2] (setting [4]), the IC50 was 2 nM.
For `CCCCS(=O)(=O)N[C@@H](Cc1ccc(OCC2CCN(c3ccncc3)CC2)cc1)C(=O)OC` [Example 33, Methyl 2-S-(n-butylsulphonylamino)-3-[4-[1-(4-pyridyl)piperidin-4-yl]methoxyphenyl]propionate], in assay [1] (setting [3]), the Kb was 398 nM. For the same compound, in assay [2] (setting [4]), the IC50 was 126 nM.
